From ChEMBL document CHEMBL4431298 (Medchemcomm, 2016) come the findings set out here.

The source made the active and inactive calls. No cut-off for these calls is given here.

Holding throughout (format): cell-based
For experiment [1], the target named is T1, Ferroportin (Homo sapiens, UniProt Q9NP59).
T1 sequence (Q9NP59 whole entry): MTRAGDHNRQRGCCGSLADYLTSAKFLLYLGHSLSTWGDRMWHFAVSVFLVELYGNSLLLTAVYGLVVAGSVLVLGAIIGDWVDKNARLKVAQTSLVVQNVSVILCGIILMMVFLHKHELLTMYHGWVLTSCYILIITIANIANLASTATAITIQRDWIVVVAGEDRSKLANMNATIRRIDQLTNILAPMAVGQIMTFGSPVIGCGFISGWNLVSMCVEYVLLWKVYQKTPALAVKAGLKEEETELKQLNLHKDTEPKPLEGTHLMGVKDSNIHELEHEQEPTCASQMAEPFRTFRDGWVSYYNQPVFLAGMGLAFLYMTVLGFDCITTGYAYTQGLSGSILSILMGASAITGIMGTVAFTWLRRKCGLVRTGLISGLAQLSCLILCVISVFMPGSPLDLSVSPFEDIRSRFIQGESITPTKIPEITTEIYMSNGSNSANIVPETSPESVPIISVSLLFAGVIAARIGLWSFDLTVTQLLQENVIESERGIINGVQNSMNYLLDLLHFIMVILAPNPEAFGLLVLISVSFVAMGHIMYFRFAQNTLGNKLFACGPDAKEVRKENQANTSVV
The experiment can be described thus: (§1) Inhibition of recombinant human SLC40A1 expressed in human T-REx-293 cells assessed as reduction in ferroportin internalization incubated for 20 hrs by luciferase reporter gene assay.

Experiment [2] addresses T2, Ferroportin (Homo sapiens) (UniProt Q9NP59).
T2 sequence (whole entry): T1 sequence (Q9NP59 whole entry)
The experiment can be described thus: Inhibition of recombinant human C-terminal nano luciferase-tagged SLC40A1 expressed in human T-REx-293 cells assessed as decrease in 55Fe-apotransferrin export at 10 uM preincubated for 24 hrs followed by export buffer and compound addition measured after 5 mins by scintillation counting method.

Experiment [3] concerns the target T2, Ferroportin (Homo sapiens). The experiment is described as §1.
Experiment [4] deals with T2, Ferroportin (Homo sapiens). The experiment can be described thus: Inhibition of recombinant human SLC40A1 expressed in human T-REx-293 cells exposed to 4 hrs of doxycycline induction assessed as reduction in ferroportin internalization incubated for 20 hrs by luciferase reporter gene assay relative to control. Conditions: concentration not given here.
In experiment [5] the target is T2, Ferroportin (Homo sapiens). In words: Inhibition of recombinant human SLC40A1 expressed in human T-REx-293 cells exposed to >4 hrs of doxycycline induction assessed as reduction in ferroportin internalization incubated for 20 hrs by luciferase reporter gene assay relative to control. Conditions: concentration not given here.
Experiment [6] has as its target T1, Ferroportin. The experiment can be described thus: Inhibition of human GFP-tagged SLC40A1 expressed in HEK293 cells assessed as ferroportin internalization by fluorescence microscopic analysis.
Experiment [7] addresses T2, Ferroportin (Homo sapiens). The experiment can be described thus: (§2) Inhibition of recombinant human C-terminal nano luciferase-tagged SLC40A1 expressed in human T-REx-293 cells assessed as ferroportin internalization incubated for 20 hrs measured at 459 nanometer by Hoechst staining based cellomics arrayscan imaging analysis.
The target in experiment [8] is T1, Ferroportin. Described as §2.
Experiment [9] deals with T2, Ferroportin (Homo sapiens). In words: Binding affinity to recombinant human C-terminal nano luciferase-tagged SLC40A1 expressed in human T-REx-293 cells assessed as internalization of compound-ferroportin conjugate at 0.0001 to 0.01 mg/ml incubated for 20 hrs measured at 549 nanometer by Hoechst staining based cellomics arrayscan imaging analysis.

For the compound `CCCCCCCCCCCCCCCC(=O)NCCCOCCOCCOCCCNC(=O)C[C@H](Cc1ccccc1)NC(=O)[C@H](CCCNC(=N)N)NC(=O)[C@H](CS)NC(=O)[C@H](CCCNC(=N)N)NC(=O)C[C@@H]1CCCN1C(=O)[C@@H](NC(=O)[C@H](Cc1c[nH]cn1)NC(=O)[C@@H](NC(=O)CNCC(=O)O)[C@@H](C)O)C(c1ccccc1)c1ccccc1`, the EC50 at Ferroportin [1] amounted to 21 nM.
The same measure, in the same setting: as for `CC[C@H](C)[C@@H]1NC(=O)[C@@H](NC(=O)[C@@H](NC(=O)[C@@H]2CCCN2C(=O)[C@H](Cc2ccccc2)NC(=O)[C@H](Cc2c[nH]cn2)NC(=O)[C@@H](NC(=O)[C@@H](N)CC(=O)O)[C@@H](C)O)[C@@H](C)CC)CSSC[C@@H](C(=O)N[C@@H](CCCCN)C(=O)N[C@H](C(=O)O)[C@@H](C)O)NC(=O)[C@@H]2CSSC[C@@H]3NC(=O)[C@@H]4CSSC[C@H](NC(=O)[C@H](Cc5ccccc5)NC1=O)C(=O)N[C@@H](CSSC[C@H](NC(=O)[C@H](CCCCN)NC(=O)[C@H](CO)NC(=O)[C@H](CCCNC(=N)N)NC(=O)[C@H](Cc1c[nH]cn1)NC3=O)C(=O)NCC(=O)N[C@@H](CCSC)C(=O)N2)C(=O)NCC(=O)N4`, the figure is 22 nM.
For `CC[C@H](C)[C@@H]1NC(=O)[C@H](NC(=O)[C@@H](NC(=O)[C@@H]2CCCN2C(=O)[C@H](Cc2ccccc2)NC(=O)[C@H](Cc2cnc[nH]2)NC(=O)[C@@H](NC(=O)[C@@H](N)CC(=O)O)[C@@H](C)O)[C@@H](C)CC)CSSC[C@@H](C(=O)N[C@@H](CCCCN)C(=O)N[C@H](C(=O)O)[C@@H](C)O)NC(=O)[C@@H]2CSSC[C@@H]3NC(=O)[C@@H]4CSSC[C@H](NC(=O)[C@H](Cc5ccccc5)NC1=O)C(=O)N[C@@H](CSSC[C@H](NC(=O)[C@H](CCCCN)NC(=O)[C@H](CO)NC(=O)[C@H](CCCNC(=N)N)NC(=O)[C@H](Cc1cnc[nH]1)NC3=O)C(=O)NCC(=O)N[C@@H](CCSC)C(=O)N2)C(=O)NCC(=O)N4`, in [2], the inhibition result is “Active”. Moreover, the inhibition result in experiment [3] was “Dose-dependent effect”; in [4], 50%; in [5], 25%.
With `CC[C@H](C)[C@H](NC(=O)[C@H](CS)NC(=O)[C@@H](NC(=O)[C@@H]1CCCN1C(=O)[C@H](Cc1ccccc1)NC(=O)[C@H](Cc1cnc[nH]1)NC(=O)[C@@H](NC(=O)[C@H](CC(=O)O)NC(C)=O)[C@@H](C)O)[C@@H](C)CC)C(=O)N[C@@H](Cc1ccccc1)C(=O)O`, the half-maximal inhibitory concentration (IC50) on Ferroportin [6] stood at 76 nM.
With `CC[C@H](C)[C@H](NC(=O)[C@H](CS)NC(=O)[C@@H](NC(=O)[C@@H]1CCCN1C(=O)[C@H](Cc1ccccc1)NC(=O)[C@H](Cc1c[nH]cn1)NC(=O)[C@@H](NC(=O)[C@H](CC(=O)O)NC(C)=O)[C@@H](C)O)[C@@H](C)CC)C(=O)N[C@@H](Cc1ccccc1)C(=O)NCCOCCOCCOCC(=O)N[C@H](CCCNC(=N)N)C(=O)N[C@H](CCCNC(=N)N)C(=O)N[C@H](CCCCNC(=O)CCCCCNC(=O)CCC1=C(C)C2=Cc3ccc(-c4ccc(OC)cc4)n3[B-](F)(F)[N+]2=C1C)C(=O)O`, the inhibition result in experiment [3] and in experiment [7] was “Dose-dependent effect” in each case. The half-maximal effective concentration (EC50) stood at 347 nM at Ferroportin [1] and 1860 nM at Ferroportin [8]. The result in [9] was Active.
Turning to `CCCCCCCCCCCCCCCC(=O)NCCCOCCOCCOCCCNC(=O)C[C@H](Cc1ccccc1)NC(=O)[C@H](CCCNC(=N)N)NC(=O)[C@@H](CS)NC(=O)[C@H](CCCNC(=N)N)NC(=O)C[C@@H]1CCCN1C(=O)[C@@H](NC(=O)[C@H](Cc1c[nH]cn1)NC(=O)[C@@H](NC(=O)CNCC(=O)O)[C@@H](C)O)C(c1ccccc1)c1ccccc1`, in experiment [3], the inhibition entry was “Dose-dependent effect”.
